Test results published in the NIST ThermoML archive (doi:10.1016/j.tca.2015.09.023).
Numbers after ± are expanded uncertainties.

Experiment: not given
Settings: Crystal; DTA

| Normal melting temperature | Structure (SMILES) |
| --- | --- |
| 92.6 ± 0.4 °C | CN1C(=O)N[C@H]2[C@@H]1N(C)C(=O)N2C (racemic) |
| 277.1 ± 0.4 °C | CN1C(=O)N[C@H]2[C@@H]1NC(=O)N2C (racemic) |
| 261.6 ± 0.4 °C | CN1C(=O)N[C@@H]2NC(=O)N[C@@H]21 (racemic) |

Experiment: Molar enthalpy of transition or fusion
Settings: Crystal; DSC

| Molar enthalpy of transition or fusion | Structure (SMILES) |
| --- | --- |
| 4.8 ± 0.167 kcal/mol | CN1C(=O)N[C@H]2[C@@H]1N(C)C(=O)N2C (racemic) |
| 5.83 ± 0.167 kcal/mol | CN1C(=O)N[C@H]2[C@@H]1NC(=O)N2C (racemic) |
| 8.15 ± 0.191 kcal/mol | CN1C(=O)N[C@@H]2NC(=O)N[C@@H]21 (racemic) |
